{"source": "patent US20060200870A1", "about": "“Methods of treating muscular dystrophy” (priority 2004, published 2006)", "origin": "cited, not measured here", "key": {"humans with DMD": {"system": "humans with DMD", "details": "humans (males) with DMD"}, "[1]": {"system": "derangements or deficiencies in AGAT activity", "details": "oral creatine"}, "patients with DMD": {"system": "patients with DMD", "details": "0.75 mg/kg in intermittent regimens"}}, "note": "Entries after “also recorded” stand apart in the source; their conditions may differ.", "data": [{"smiles": "CN(CC(=O)O)C(=N)N", "note": "[creatine]", "values": [{"measurement": "benefit of oral creatine supplementation", "setting": "mdx mice", "value": "some benefits"}, {"measurement": "benefit / therapeutic effect of oral creatine supplementation", "setting": "humans with DMD", "value": "no such clear benefit; also recorded: has not been shown to have a significant therapeutic effect"}, {"measurement": "success in overcoming derangements or deficiencies in AGAT activity", "setting": "[1]", "value": "partially successful"}]}, {"smiles": "C[C@]12C=CC(=O)C=C1CC[C@@H]1[C@@H]2C(=O)C[C@@]2(C)[C@H]1CC[C@]2(O)C(=O)CO", "note": "[prednisone]", "values": [{"measurement": "independent ambulation", "setting": "patients with DMD; some patients", "value": "can help prolong independent ambulation"}, {"measurement": "adverse side-effects", "setting": "patients with DMD; weight-gain, osteopenia, hirsutism, cushingoid facies, behavioral and endocrinology-related issues", "value": "significant adverse side-effects"}]}]}
